Test results reported in patent US6608082B1, “Treatment of erectile dysfunction using isoquinoline compound melanocortin receptor ligands” (Lion Bioscience AG, priority 1998, dated 2003).

What was measured:
MCR-1 = target: T1, MCR-1 (Homo sapiens, UniProt Q01726); assay: Melanocortin receptor binding assay, competition with 125I-HP 467, HEK 293 cells expressing hMCR-1; conditions: inhibition of binding of 125I-HP 467, HEK 293 cells expressing MCR-1, TRG 2414 library; for IC50: read-out: MC-1 IC50
T1 construct: expressed in transfected cells; host or cells: HEK 293
T1 sequence (Q01726 whole entry): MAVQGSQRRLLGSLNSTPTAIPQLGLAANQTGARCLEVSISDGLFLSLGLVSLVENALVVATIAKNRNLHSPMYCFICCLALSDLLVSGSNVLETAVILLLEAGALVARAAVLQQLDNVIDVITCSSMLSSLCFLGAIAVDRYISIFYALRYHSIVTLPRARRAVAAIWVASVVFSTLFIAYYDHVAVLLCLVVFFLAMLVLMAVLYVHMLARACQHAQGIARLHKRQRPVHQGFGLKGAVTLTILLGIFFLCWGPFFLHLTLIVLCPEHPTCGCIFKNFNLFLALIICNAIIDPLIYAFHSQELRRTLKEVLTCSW
In short: (§1)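 Intact-cell competition binding, 2.5 hr at 37 °C, in PBS/10% calf serum/1 mM CaCl2; hMCR-4 cells at 4×10^3 per tube, hMCR-1 cells at 2×10^4 per tube. Filtration on BSA/CaCl2-soaked GF/B, cold 50 mM Tris pH 7.4 washes, scintillation count.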

MCR-4 = target: T2, MCR-4 (Homo sapiens, UniProt P32245); assay: Melanocortin receptor binding assay, competition with 125I-HP 467, HEK 293 cells expressing hMCR-4; conditions: inhibition of binding of 125I-HP 467, HEK 293 cells expressing MCR-4, TRG 2414 library; for IC50: read-out: MC-4 IC50
T2 construct: expressed in transfected cells; host or cells: HEK 293
T2 sequence (P32245 whole entry): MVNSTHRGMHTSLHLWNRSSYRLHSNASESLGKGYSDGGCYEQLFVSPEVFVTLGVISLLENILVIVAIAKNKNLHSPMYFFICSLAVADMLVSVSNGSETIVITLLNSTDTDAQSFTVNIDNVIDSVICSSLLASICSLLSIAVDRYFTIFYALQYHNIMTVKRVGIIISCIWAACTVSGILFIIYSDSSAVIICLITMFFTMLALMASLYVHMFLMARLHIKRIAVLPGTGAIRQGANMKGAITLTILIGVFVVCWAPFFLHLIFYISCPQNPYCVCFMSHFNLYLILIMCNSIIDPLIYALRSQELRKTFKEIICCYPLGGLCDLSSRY
In short: as §1

Row | SMILES | IC50 (MCR-1) | IC50 (MCR-4) | MC-1 IC50 (MCR-1) | MC-4 IC50 (MCR-4)
1 | COc1ccccc1CCNCC1c2ccccc2CN(CCCCC(CN)NCc2ccccc2)C1c1cc(C(F)(F)F)cc(C(F)(F)F)c1 (centres unmarked) [TRG 2414-51] | 6.45 µM | 2.16 µM | – | –
2 | NCC(N)CCCCN1Cc2ccccc2C(CNCCc2cccc(Cl)c2)C1c1cc(C(F)(F)F)cc(C(F)(F)F)c1 (centres unmarked) [TRG 2414-53] | 9.78 µM | 0.64 µM | – | –
3 | NCC(CCCCN1Cc2ccccc2C(CNCCc2cccc(Cl)c2)C1c1cc(C(F)(F)F)cc(C(F)(F)F)c1)NCCc1ccccc1 (centres unmarked) [TRG 2414-54] | 9.81 µM | 3.06 µM | – | –
4 | NCC(CCCCN1Cc2ccccc2C(CNCCc2cccc(Cl)c2)C1c1cc(C(F)(F)F)cc(C(F)(F)F)c1)NCc1ccccc1 (centres unmarked) [TRG 2414-55] | 12.5 µM | 3.12 µM | – | –
5 | CC(C)Cc1ccc(C(C)CNC(CN)CCCCN2Cc3ccccc3C(CNCCc3cccc(Cl)c3)C2c2cc(C(F)(F)F)cc(C(F)(F)F)c2)cc1 (centres unmarked) [TRG 2414-56] | – | 42.6 µM | no fit | –
6 | COc1cccc(CNCC2c3ccccc3CN(CCCCC(N)CN)C2c2cc(C(F)(F)F)cc(C(F)(F)F)c2)c1 (centres unmarked) [TRG 2414-57] | 7.7 µM | 1.55 µM | – | –
7 | COc1cccc(CNCC2c3ccccc3CN(CCCCC(CN)NCCc3ccccc3)C2c2cc(C(F)(F)F)cc(C(F)(F)F)c2)c1 (centres unmarked) [TRG 2414-58] | 6.72 µM | 3.45 µM | – | –
8 | COc1cccc(CNCC2c3ccccc3CN(CCCCC(CN)NCc3ccccc3)C2c2cc(C(F)(F)F)cc(C(F)(F)F)c2)c1 (centres unmarked) [TRG 2414-59] | 9.64 µM | 6.76 µM | – | –
9 | COc1cccc(CNCC2c3ccccc3CN(CCCCC(CN)NCC(C)c3ccc(CC(C)C)cc3)C2c2cc(C(F)(F)F)cc(C(F)(F)F)c2)c1 (centres unmarked) [TRG 2414-60] | – | 52.6 µM | no fit | –
10 | COc1ccc(CNCC2c3ccccc3CN(CCCCC(N)CN)C2c2cc(C(F)(F)F)cc(C(F)(F)F)c2)cc1 (centres unmarked) [TRG 2414-61] | 10.5 µM | 1.67 µM | – | –
11 | COc1ccc(CNCC2c3ccccc3CN(CCCCC(CN)NCCc3ccccc3)C2c2cc(C(F)(F)F)cc(C(F)(F)F)c2)cc1 (centres unmarked) [TRG 2414-62] | 15.5 µM | 6.87 µM | – | –
12 | COc1ccc(CNCC2c3ccccc3CN(CCCCC(CN)NCc3ccccc3)C2c2cc(C(F)(F)F)cc(C(F)(F)F)c2)cc1 (centres unmarked) [TRG 2414-63] | 14.5 µM | 5.34 µM | – | –
13 | COc1ccc(CNCC2c3ccccc3CN(CCCCC(CN)NCC(C)c3ccc(CC(C)C)cc3)C2c2cc(C(F)(F)F)cc(C(F)(F)F)c2)cc1 (centres unmarked) [TRG 2414-64] | 34.5 µM | 45.5 µM | – | –
14 | COc1ccc(CCNCC2c3ccccc3CN(CCCCC(N)CN)C2c2cc(C(F)(F)F)cc(C(F)(F)F)c2)cc1 (centres unmarked) [TRG 2414-65] | 3.3 µM | 0.26 µM | – | –
15 | COc1ccc(CCNCC2c3ccccc3CN(CCCCC(CN)NCCc3ccccc3)C2c2cc(C(F)(F)F)cc(C(F)(F)F)c2)cc1 (centres unmarked) [TRG 2414-66] | 10.5 µM | 3.2 µM | – | –
16 | COc1ccc(CCNCC2c3ccccc3CN(CCCCC(CN)NCc3ccccc3)C2c2cc(C(F)(F)F)cc(C(F)(F)F)c2)cc1 (centres unmarked) [TRG 2414-67] | 0.033 µM | 5.21 µM | – | –
17 | COc1ccc(CCNCC2c3ccccc3CN(CCCCC(CN)NCC(C)c3ccc(CC(C)C)cc3)C2c2cc(C(F)(F)F)cc(C(F)(F)F)c2)cc1 (centres unmarked) [TRG 2414-68] | – | 17.7 µM | no fit | –
18 | NCC(N)CCCCN1Cc2ccccc2C(CNCc2ccccc2)C1c1cc(C(F)(F)F)cc(C(F)(F)F)c1 (centres unmarked) [TRG 2414-69] | 9.45 µM | 0.64 µM | – | –
19 | NCC(CCCCN1Cc2ccccc2C(CNCc2ccccc2)C1c1cc(C(F)(F)F)cc(C(F)(F)F)c1)NCCc1ccccc1 (centres unmarked) [TRG 2414-70] | 18.3 µM | 9.29 µM | – | –
20 | NCC(CCCCN1Cc2ccccc2C(CNCc2ccccc2)C1c1cc(C(F)(F)F)cc(C(F)(F)F)c1)NCc1ccccc1 (centres unmarked) [TRG 2414-71] | 17 µM | 9.06 µM | – | –

Row | SMILES | IC50 (MCR-1) | IC50 (MCR-4) | MC-1 IC50 (MCR-1) | MC-4 IC50 (MCR-4)
21 | CC(C)Cc1ccc(C(C)CNC(CN)CCCCN2Cc3ccccc3C(CNCc3ccccc3)C2c2cc(C(F)(F)F)cc(C(F)(F)F)c2)cc1 (centres unmarked) [TRG 2414-72] | – | 44.2 µM | no fit | –
22 | NCC(N)CCCCN1Cc2ccccc2C(CNC2CCCCCC2)C1c1cc(C(F)(F)F)cc(C(F)(F)F)c1 (centres unmarked) [TRG 2414-73] | 5.77 µM | 1.01 µM | – | –
23 | NCC(CCCCN1Cc2ccccc2C(CNC2CCCCCC2)C1c1cc(C(F)(F)F)cc(C(F)(F)F)c1)NCCc1ccccc1 (centres unmarked) [TRG 2414-74] | 11.2 µM | 4.57 µM | – | –
24 | NCC(CCCCN1Cc2ccccc2C(CNC2CCCCCC2)C1c1cc(C(F)(F)F)cc(C(F)(F)F)c1)NCc1ccccc1 (centres unmarked) [TRG 2414-75] | 1.92 µM | 3.24 µM | – | –
25 | CC(C)Cc1ccc(C(C)CNC(CN)CCCCN2Cc3ccccc3C(CNC3CCCCCC3)C2c2cc(C(F)(F)F)cc(C(F)(F)F)c2)cc1 (centres unmarked) [TRG 2414-76] | – | 54.4 µM | no fit | –
26 | NCC(N)CCCCN1Cc2ccccc2C(CNC2CCCCC2)C1c1cc(C(F)(F)F)cc(C(F)(F)F)c1 (centres unmarked) [TRG 2414-77] | 3.86 µM | 0.63 µM | – | –
27 | NCC(CCCCN1Cc2ccccc2C(CNC2CCCCC2)C1c1cc(C(F)(F)F)cc(C(F)(F)F)c1)NCCc1ccccc1 (centres unmarked) [TRG 2414-78] | 6.28 µM | 4.26 µM | – | –
28 | NCC(CCCCN1Cc2ccccc2C(CNC2CCCCC2)C1c1cc(C(F)(F)F)cc(C(F)(F)F)c1)NCc1ccccc1 (centres unmarked) [TRG 2414-79] | 10.4 µM | 4.99 µM | – | –
29 | CC(C)Cc1ccc(C(C)CNC(CN)CCCCN2Cc3ccccc3C(CNC3CCCCC3)C2c2cc(C(F)(F)F)cc(C(F)(F)F)c2)cc1 (centres unmarked) [TRG 2414-80] | 23.7 µM | 27 µM | – | –
30 | NCC(CCCCN1Cc2ccccc2C(CNCc2ccccc2C(F)(F)F)C1c1cccc(Oc2ccccc2)c1)NCc1ccccc1 (centres unmarked) [TRG 2414-83] | 31.5 µM | – | – | no fit
31 | CC(C)Cc1ccc(C(C)CN[C@H](CN)CCCCN2Cc3ccccc3C(CNCc3ccccc3C(F)(F)F)C2c2cccc(Oc3ccccc3)c2)cc1 (some centres unmarked) [TRG 2414-84] | – | – | no fit | no fit
32 | CCOc1ccccc1CNCC1c2ccccc2CN(CCCCC(CN)NCCc2ccccc2)C1c1cccc(Oc2ccccc2)c1 (centres unmarked) [TRG 2414-86] | 11.8 µM | 16.2 µM | – | –
33 | CCOc1ccccc1CNCC1c2ccccc2CN(CCCCC(CN)NCc2ccccc2)C1c1cccc(Oc2ccccc2)c1 (centres unmarked) [TRG 2414-87] | 6.65 µM | 11.2 µM | – | –
34 | CCOc1ccccc1CNCC1c2ccccc2CN(CCCCC(CN)NCC(C)c2ccc(CC(C)C)cc2)C1c1cccc(Oc2ccccc2)c1 (centres unmarked) [TRG 2414-88] | 36.5 µM | – | – | no fit
35 | COc1ccccc1CCNCC1c2ccccc2CN(CCCCC(N)CN)C1c1cccc(Oc2ccccc2)c1 (centres unmarked) [TRG 2414-89] | 1.26 µM | 0.73 µM | – | –
36 | COc1ccccc1CCNCC1c2ccccc2CN(CCCCC(CN)NCCc2ccccc2)C1c1cccc(Oc2ccccc2)c1 (centres unmarked) [TRG 2414-90] | 3.52 µM | 4.06 µM | – | –
37 | COc1ccccc1CCNCC1c2ccccc2CN(CCCCC(CN)NCc2ccccc2)C1c1cccc(Oc2ccccc2)c1 (centres unmarked) [TRG 2414-91] | 3.21 µM | 2.74 µM | – | –
38 | NCC(N)CCCCN1Cc2ccccc2C(CNCCc2cccc(Cl)c2)C1c1cccc(Oc2ccccc2)c1 (centres unmarked) [TRG 2414-93] | 6.3 µM | 3.8 µM | – | –
39 | NCC(CCCCN1Cc2ccccc2C(CNCCc2cccc(Cl)c2)C1c1cccc(Oc2ccccc2)c1)NCCc1ccccc1 (centres unmarked) [TRG 2414-94] | 16.9 µM | 8.2 µM | – | –
40 | NCC(CCCCN1Cc2ccccc2C(CNCCc2cccc(Cl)c2)C1c1cccc(Oc2ccccc2)c1)NCc1ccccc1 (centres unmarked) [TRG 2414-95] | 8.66 µM | 5.26 µM | – | –
